This note sets out measurements from ChEMBL document CHEMBL3400061, “Structure-activity relationships of IKM-159: Diverted synthesis and biological evaluation of a series of C5-oxy analogs” (Bioorg Med Chem Lett, 2015).

What all share (assay type): functional, organism-based
Test [1] relates to Mus musculus. The experiment in a line: Effect on behavior in ddY mouse at 100 ug, icv.
The test system of test [2] is Mus musculus. As to the kind of experiment: Suppression of voluntary movements in ddY mouse at 100 ug, icv.
Test [3] concerns Mus musculus. The experiment in a line: Induction of loss of body motion in ddY mouse at 100 ug, icv.
The subject of test [4] is Mus musculus. The experiment in a line: Induction of loss of body flaccidness in ddY mouse at 100 ug, icv.

The structures appear in SMILES notation. Active and inactive are the calls of the source. No cut-off for these calls is given here.

With `C=C[C@@H]1O[C@@]2(CC(=O)O)[C@H](C(=O)O)NC(=O)[C@H]2[C@@H]1O`, in the test on Mus musculus [1], the result was inactive.

Turning to `O=C(O)C[C@@]12O[C@H]3CC(=O)O[C@H]3[C@@H]1C(=O)N[C@H]2C(=O)O`, in the test on Mus musculus [1], the result was inactive.

On to `O=C(O)C[C@@]12O[C@H]3C=CC(=O)O[C@H]3[C@@H]1C(=O)N[C@H]2C(=O)O`, for which the result with Mus musculus [1] was inactive.

For the compound `O=C(O)C[C@@]12O[C@H]3C=CCO[C@H]3[C@@H]1C(=O)N[C@H]2C(=O)O`, the outcome with Mus musculus [2] was Active.

As to `O=C(O)C[C@@]12O[C@H]3C=CCN[C@H]3[C@@H]1C(=O)N[C@H]2C(=O)O`, the result in the test with Mus musculus [3] and in the test with Mus musculus [4] was Active.
